Laboratory results from BindingDB's records for PubMed 3009454 (University of Wisconsin, 1986).
pKd: −log10 of the molar value.

Each compound was assayed against T1, Aryl hydrocarbon receptor (Mus musculus, UniProt P30561) (assay: Binding Assay). Conditions: pH 7.5; 0 °C.
T1 sequence (P30561 whole entry): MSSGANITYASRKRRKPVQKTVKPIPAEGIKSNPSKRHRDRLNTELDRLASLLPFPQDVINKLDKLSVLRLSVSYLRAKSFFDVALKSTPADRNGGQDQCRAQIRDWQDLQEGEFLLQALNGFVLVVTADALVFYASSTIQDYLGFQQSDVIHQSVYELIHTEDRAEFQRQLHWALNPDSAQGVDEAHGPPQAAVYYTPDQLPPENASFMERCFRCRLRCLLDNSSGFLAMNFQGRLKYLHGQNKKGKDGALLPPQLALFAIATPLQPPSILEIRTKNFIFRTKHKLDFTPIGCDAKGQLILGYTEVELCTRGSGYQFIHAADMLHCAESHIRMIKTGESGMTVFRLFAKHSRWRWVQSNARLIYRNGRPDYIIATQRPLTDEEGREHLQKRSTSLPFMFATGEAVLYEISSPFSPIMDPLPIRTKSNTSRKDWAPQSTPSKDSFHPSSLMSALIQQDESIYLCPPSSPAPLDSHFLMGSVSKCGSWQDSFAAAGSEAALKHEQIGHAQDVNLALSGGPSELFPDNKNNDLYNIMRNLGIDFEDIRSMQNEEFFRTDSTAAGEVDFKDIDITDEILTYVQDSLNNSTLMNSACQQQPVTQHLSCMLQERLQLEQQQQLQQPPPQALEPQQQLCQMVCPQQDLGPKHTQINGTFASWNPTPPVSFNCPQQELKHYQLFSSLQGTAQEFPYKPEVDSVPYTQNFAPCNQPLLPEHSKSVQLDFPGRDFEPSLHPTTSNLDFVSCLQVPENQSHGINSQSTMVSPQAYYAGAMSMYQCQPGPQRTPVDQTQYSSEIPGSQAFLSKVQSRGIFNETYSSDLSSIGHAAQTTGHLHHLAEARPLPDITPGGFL
Procedure: The equilibrium dissocation constants, KD values for the photoaffinity ligands were determined by a competitive binding assay.

SMILES | pKd
[N-]=[N+]=Nc1cc(Cl)cc2c1Oc1cc(Cl)c(Cl)cc1O2 [Photoaffinity ligand, 1] | 9.36
[N-]=[N+]=Nc1cc2c(cc1I)Oc1cc(Br)c(Br)cc1O2 [Photoaffinity ligand, 4] | 9.12
[N-]=[N+]=Nc1ccc(C(=O)NCc2c(Cl)c(Cl)cc3c2Oc2cc(Cl)c(Cl)cc2O3)c(O)c1 [Photoaffinity ligand, 7] | 6.95
[N-]=[N+]=Nc1cc2c(cc1Cl)Oc1cc(Cl)c(Cl)cc1O2 [Photoaffinity ligand, 3] | 9.31
[N-]=[N+]=Nc1ccc([N+](=O)[O-])c(C(=O)NCc2c(Cl)c(Cl)cc3c2Oc2cc(Cl)c(Cl)cc2O3)c1 [Photoaffinity ligand, 5] | 7.89
[N-]=[N+]=Nc1ccc(NCCCCCC(=O)NCc2c(Cl)c(Cl)cc3c2Oc2cc(Cl)c(Cl)cc2O3)c([N+](=O)[O-])c1 [Photoaffinity ligand, 8] | 7.96
[N-]=[N+]=Nc1ccc(C(=O)NCc2c(Cl)c(Cl)cc3c2Oc2cc(Cl)c(Cl)cc2O3)cc1 [Photoaffinity ligand, 6] | 8.09
[N-]=[N+]=Nc1c(I)c(Cl)cc2c1Oc1cc(Cl)c(Cl)cc1O2 [Photoaffinity ligand, 2] | 8.68
